According to ChEMBL document CHEMBL1201862, “PubChem BioAssay data set” (2004):
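Briefly, cells in 96-well plates were exposed to five compound concentrations for 48 h, and endpoints were estimated by linear interpolation. Here, GI50 denotes the concentration required for 50% inhibition of growth.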 Activity calls are given as the source filed them. No stated cut-off is given here; in the data, active = GI50 up to about 1.1 µM and inactive = higher.

Key:
Assay in all cases: NCI-60 cell line screen, 48 h
[1] = tested on: KM12
[2] = tested on: RPMI-8226
[3] = tested on: M19-MEL
[4] = tested on: U-251
[5] = tested on: M14
[6] = tested on: TK-10
[7] = tested on: OVCAR-3
[8] = tested on: COLO 205
[9] = tested on: SK-MEL-28
[10] = tested on: LOX IMVI
[11] = tested on: HOP-92
[12] = tested on: SF-539
[13] = tested on: CAKI-1
[14] = tested on: HT-29
[15] = tested on: IGROV-1
[16] = tested on: CCRF-CEM
[17] = tested on: NCI-H226
[18] = tested on: A498
[19] = tested on: SR

Measured: GI50

COc1cc2ccc3c4cc(OC)c(OC)cc4c[n+](C)c3c2cc1O
inactive: [1] > 100 µM | [2] > 100 µM | [3] > 100 µM | [4] 6.37 µM | [5] > 100 µM | [6] > 100 µM | [7] 67.5 µM | [8] > 90.8 µM | [9] > 100 µM | [10] > 73.8 µM | [11] > 100 µM | [12] > 100 µM | [13] > 100 µM | [14] > 100 µM | [15] > 100 µM | [16] > 100 µM | [17] 9.16 µM | [18] > 24.4 µM

CCN(CC)CCn1c2c3ccccc3ccc2c2oc(=O)c3ccccc3c21
inactive: [1] > 100 µM | [2] > 100 µM | [3] > 100 µM | [4] 57 µM | [5] 45.5 µM | [6] > 100 µM | [7] > 100 µM | [8] > 100 µM | [9] > 100 µM | [10] > 100 µM | [19] 34.7 µM | [11] 83.6 µM | [12] 22.6 µM | [13] > 100 µM | [14] > 100 µM | [15] 68.1 µM | [16] > 100 µM

O=C(N/N=C/c1cccc(O)c1O)N/N=C/c1cccc(O)c1O
inactive: [1] 26.5 µM | [2] 19.8 µM | [3] 22.4 µM | [4] 12.3 µM | [5] 14 µM | [6] 29.4 µM | [7] 2.51 µM | [8] > 100 µM | [9] 20.1 µM | [10] 18.7 µM | [11] 17.4 µM | [12] 4.92 µM | [14] 44.8 µM | [15] 48.1 µM | [16] 3.5 µM | [17] 23.4 µM | [18] 32.1 µM

CCOC(=O)C(=O)Nc1cccc(Cl)c1C
inactive: [1] > 100 µM | [2] > 100 µM | [3] > 100 µM | [4] > 100 µM | [5] > 100 µM | [6] > 100 µM | [7] > 100 µM | [8] > 100 µM | [9] > 100 µM | [10] > 100 µM | [11] > 100 µM | [12] > 100 µM | [13] > 100 µM | [14] > 100 µM | [15] > 100 µM | [16] > 100 µM | [17] > 100 µM

CN(C)CC/C(=N\Nc1ccccc1)c1ccccc1
inactive: [1] 1.57 µM | [2] 43.7 µM | [3] 25.2 µM | [4] 27.4 µM | [5] 2 µM | [6] 14.3 µM | [7] 13.9 µM | [8] 17.6 µM | [9] > 10 µM | [19] 47.8 µM | [11] 11.1 µM | [12] 15.8 µM | [13] 3.18 µM | [14] 2.13 µM | [15] 29.4 µM

COS(=O)(=O)OCCC(NC(=O)OCc1ccccc1)C(=O)OCc1ccccc1 (stereo not drawn)
inactive: [1] > 100 µM | [2] > 100 µM | [3] > 100 µM | [4] > 100 µM | [5] > 100 µM | [6] > 100 µM | [7] > 100 µM | [8] > 100 µM | [9] > 100 µM | [10] > 100 µM | [11] > 100 µM | [12] > 100 µM | [13] > 100 µM | [14] 59.2 µM | [15] > 100 µM | [16] > 100 µM | [17] > 100 µM | [18] > 100 µM

Cc1ccccc1C(=O)Oc1ccc(O)cc1
inactive: [1] > 100 µM | [2] > 100 µM | [3] > 100 µM | [4] > 100 µM | [5] > 100 µM | [6] > 100 µM | [7] > 100 µM | [8] > 100 µM | [12] > 100 µM | [13] > 100 µM | [14] > 100 µM | [15] > 100 µM | [16] > 100 µM | [17] > 100 µM | [18] > 100 µM

CCCCN(CC)C(=O)C(=O)C1C(=O)Nc2ccccc2[S+]1[O-] (stereo not drawn)
inactive: [1] > 100 µM | [2] > 100 µM | [3] > 100 µM | [4] > 100 µM | [5] > 100 µM | [6] > 100 µM | [7] > 100 µM | [8] > 100 µM | [9] > 100 µM | [10] > 100 µM | [11] > 100 µM | [12] > 100 µM | [13] > 100 µM | [14] > 100 µM | [15] > 100 µM | [16] > 100 µM | [17] > 100 µM | [18] > 100 µM

CCOC(=O)C(C(=O)c1ccccc1)=C1NCCN1
inactive: [1] > 100 µM | [2] > 100 µM | [3] > 100 µM | [4] > 100 µM | [5] > 100 µM | [7] > 100 µM | [8] > 100 µM | [9] > 100 µM | [10] > 100 µM | [19] > 100 µM | [12] > 100 µM | [13] > 100 µM | [14] > 100 µM | [15] > 100 µM | [16] > 100 µM | [17] > 100 µM

COc1ccc(C2Cc3cc(OC)c(OC)c(OC)c3C2=O)cc1 (stereo not drawn)
inactive: [1] > 100 µM | [2] > 100 µM | [3] > 100 µM | [4] > 100 µM | [5] > 100 µM | [6] > 100 µM | [7] > 100 µM | [8] > 100 µM | [9] > 100 µM | [10] > 100 µM | [12] > 100 µM | [13] > 100 µM | [14] > 100 µM | [15] > 100 µM | [16] > 100 µM | [17] > 100 µM | [18] > 100 µM

CC1=COC(=O)c2ccccc2N1
inactive: [1] > 100 µM | [2] > 100 µM | [3] > 100 µM | [4] > 100 µM | [5] > 100 µM | [6] > 100 µM | [7] > 100 µM | [8] > 100 µM | [9] > 100 µM | [10] > 100 µM | [19] > 100 µM | [11] > 100 µM | [12] > 100 µM | [13] > 100 µM | [14] > 100 µM | [15] > 100 µM | [16] > 100 µM | [17] > 100 µM

Cc1cc(O)nc(CNC(=O)Cc2ccccc2)n1
inactive: [1] > 100 µM | [2] > 100 µM | [3] > 100 µM | [5] > 100 µM | [6] > 100 µM | [7] > 100 µM | [8] > 100 µM | [9] > 100 µM | [10] > 100 µM | [11] > 100 µM | [12] > 100 µM | [13] > 100 µM | [14] > 100 µM | [15] > 100 µM | [16] > 100 µM | [17] > 100 µM | [18] > 100 µM
